Measured values as given in PubChem BioAssay AID1745844 (Carcinogenic Potency Database (CPDB), 2022).
Activity calls are given as the source filed them. The rule behind the calls is not given here.

System: rodent lifetime carcinogenesis bioassay, tumor incidence TD50
Assay: carcinogenic potency in animals, long-term in vivo studies, CPDB compilation (AID 1745844)
[1] = rat, strain Fischer 344, females, in feed, site: any site (literature study), lesion: several types, types named in the paper, dosed 78 weeks, study length 105 weeks

Compound C[C@@H]1C[C@H](C)CN(S(=O)(=O)c2ccc(Cl)c(C(=O)O)c2)C1 has a TD50 (rat, strain Fischer 344, males, in feed, site: liver, lesion: hepatocellular carcinoma, dosed 70 weeks, study length 71 weeks) of 4.85 mg/kg/day.
In the case of CC1=CC(C)(C)N(N=O)c2ccccc21, the TD50 (rat, strain CB, males, i.p., site: peritoneal cavity, lesion: sarcoma, dosed 26 weeks, study length 100 weeks) is reported as 3.31 mg/kg/day.
Nc1ccc(S(=O)(=O)c2ccc(N)cc2)cc1 was tested, and the carcinogen call (mouse, strain B6C3F1, females, in feed, site: any site (literature study), lesion: several types, types named in the paper, dosed 78 weeks, study length 107 weeks) was “negative (inactive)”, the carcinogen call (mouse, strain B6C3F1, males, in feed, site: any site (literature study), lesion: several types, types named in the paper, dosed 78 weeks, study length 107 weeks) was “negative (inactive)” and the carcinogen call [1] was “negative (inactive)”. For the same compound, the TD50 (rat, strain Fischer 344, males, in feed, site: all sites, lesion: lymphoma, dosed 78 weeks, study length 104 weeks) was 50.1 mg/kg/day, the TD50 (rat, strain Fischer 344, males, in feed, site: any site (literature study), lesion: several types, types named in the paper, dosed 78 weeks, study length 104 weeks) was 22.4 mg/kg/day and the TD50 (rat, strain Fischer 344, males, in feed, site: peritoneum, lesion: fibrosarcoma + sarcoma, NOS, dosed 78 weeks, study length 104 weeks) was 56.3 mg/kg/day. It also gave a TD50 (rat, strain Fischer 344, males, in feed, site: peritoneum, lesion: fibrosarcoma, dosed 78 weeks, study length 104 weeks) of 148 mg/kg/day, a TD50 (rat, strain Fischer 344, males, in feed, site: peritoneum, lesion: sarcoma, NOS, dosed 78 weeks, study length 104 weeks) of 91.3 mg/kg/day and a TD50 (rat, strain Fischer 344, males, in feed, site: spleen, lesion: fibroma, dosed 78 weeks, study length 104 weeks) of 28.5 mg/kg/day. The TD50 (rat, strain Fischer 344, males, in feed, site: spleen, lesion: fibrosarcoma + fibroma + sarcoma, NOS, dosed 78 weeks, study length 104 weeks) was 22.4 mg/kg/day, the TD50 (rat, strain Fischer 344, males, in feed, site: spleen, lesion: fibrosarcoma, dosed 78 weeks, study length 104 weeks) was 167 mg/kg/day and the TD50 (rat, strain Fischer 344, males, in feed, site: spleen, lesion: sarcoma, NOS, dosed 78 weeks, study length 104 weeks) was 170 mg/kg/day.
With COc1ccc(O)cc1 the TD50 (rat, strain F344/DuCrj, females, in feed, site: forestomach, lesion: squamous-cell carcinoma, dosed 104 weeks, study length 104 weeks) was 3070 mg/kg/day, the TD50 (rat, strain F344/DuCrj, females, in feed, site: forestomach, lesion: squamous-cell papilloma, dosed 104 weeks, study length 104 weeks) was 2580 mg/kg/day and the carcinogen call (rat, strain F344/DuCrj, males, in feed, site: forestomach, lesion: one or several types, types not named, dosed 51 weeks, study length 52 weeks) was “negative (inactive)”. The TD50 (rat, strain F344/DuCrj, males, in feed, site: forestomach, lesion: papilloma, dosed 51 weeks, study length 52 weeks) was 1460 mg/kg/day, the TD50 (rat, strain F344/DuCrj, males, in feed, site: forestomach, lesion: squamous-cell carcinoma, dosed 104 weeks, study length 104 weeks) was 377 mg/kg/day and the TD50 (rat, strain F344/DuCrj, males, in feed, site: forestomach, lesion: squamous-cell papilloma, dosed 104 weeks, study length 104 weeks) was 832 mg/kg/day. For the same compound, the TD50 (rat, strain F344/DuCrj, males, in feed, site: stomach, glandular, lesion: adenoma, dosed 104 weeks, study length 104 weeks) was 16200 mg/kg/day and the carcinogen call (rat, strain F344/DuCrj, males, in feed, site: stomach, glandular, lesion: one or several types, types not named, dosed 51 weeks, study length 52 weeks) was “negative (inactive)”.
CCC1C(=O)OCC1Cc1cncn1C (centres undefined) was tested, and the TD50 (rat, strain Sprague-Dawley, females, i.p., site: any site (literature study), lesion: malignant tumor, dosed 104 weeks, study length 104 weeks) was 98.4 mg/kg/day (inactive) and the TD50 (rat, strain Sprague-Dawley, males, i.p., site: any site (literature study), lesion: malignant tumor, dosed 104 weeks, study length 104 weeks) was 1750 mg/kg/day (inactive).
NCCNc1cccc2ccccc12 was tested, and the carcinogen call (mouse, strain B6C3F1, females, in feed, site: any site (literature study), lesion: several types, types named in the paper, dosed 104 weeks, study length 106 weeks) was “negative (inactive)”, the TD50 (mouse, strain B6C3F1, females, in feed, site: liver, lesion: hepatocellular adenoma + hepatocellular carcinoma + neoplastic nodule, dosed 104 weeks, study length 106 weeks) was 25600 mg/kg/day and the TD50 (mouse, strain B6C3F1, females, in feed, site: lung, lesion: alveolar/bronchiolar adenoma + alveolar/bronchiolar carcinoma, dosed 104 weeks, study length 106 weeks) was 4390 mg/kg/day. For the same compound, the carcinogen call (mouse, strain B6C3F1, males, in feed, site: any site (literature study), lesion: several types, types named in the paper, dosed 104 weeks, study length 104 weeks) was “negative (inactive)”, the TD50 (rat, strain Fischer 344, females, in feed, site: liver, lesion: hepatocellular adenoma + hepatocellular carcinoma + neoplastic nodule, dosed 104 weeks, study length 107 weeks) was 93.5 mg/kg/day and the TD50 (rat, strain Fischer 344, females, in feed, site: liver, lesion: hepatocellular carcinoma + neoplastic nodule, dosed 104 weeks, study length 107 weeks) was 93.5 mg/kg/day (inactive). The TD50 (rat, strain Fischer 344, males, in feed, site: any site (literature study), lesion: several types, types named in the paper, dosed 104 weeks, study length 107 weeks) was 41.6 mg/kg/day (inactive).
In the case of Nc1ccc(Cl)cc1N, the TD50 (mouse, strain B6C3F1, females, in feed, site: any site (literature study), lesion: several types, types named in the paper, dosed 78 weeks, study length 95 weeks) is reported as 4090 mg/kg/day, the TD50 (mouse, strain B6C3F1, females, in feed, site: liver, lesion: hepatocellular adenoma + hepatocellular carcinoma + neoplastic nodule, dosed 78 weeks, study length 95 weeks) is reported as 2240 mg/kg/day and the TD50 (mouse, strain B6C3F1, females, in feed, site: liver, lesion: hepatocellular adenoma + hepatocellular carcinoma, dosed 78 weeks, study length 95 weeks) is reported as 2240 mg/kg/day. For the same compound, the TD50 (mouse, strain B6C3F1, females, in feed, site: liver, lesion: hepatocellular carcinoma, dosed 78 weeks, study length 95 weeks) was 5060 mg/kg/day, the TD50 (mouse, strain B6C3F1, males, in feed, site: any site (literature study), lesion: several types, types named in the paper, dosed 78 weeks, study length 95 weeks) was 905 mg/kg/day and the TD50 (mouse, strain B6C3F1, males, in feed, site: liver, lesion: hepatocellular adenoma + hepatocellular carcinoma + neoplastic nodule, dosed 78 weeks, study length 95 weeks) was 957 mg/kg/day. For the same compound, the TD50 (mouse, strain B6C3F1, males, in feed, site: liver, lesion: hepatocellular adenoma + hepatocellular carcinoma, dosed 78 weeks, study length 95 weeks) was 957 mg/kg/day, the TD50 (mouse, strain B6C3F1, males, in feed, site: liver, lesion: hepatocellular carcinoma, dosed 78 weeks, study length 95 weeks) was 1370 mg/kg/day and the TD50 (mouse, strain B6C3F1, males, in feed, site: lung, lesion: alveolar/bronchiolar adenoma + alveolar/bronchiolar carcinoma, dosed 78 weeks, study length 95 weeks) was 21300 mg/kg/day. The TD50 [1] was 351 mg/kg/day, the TD50 (rat, strain Fischer 344, females, in feed, site: liver, lesion: hepatocellular adenoma + hepatocellular carcinoma + neoplastic nodule, dosed 78 weeks, study length 105 weeks) was 6500 mg/kg/day and the TD50 (rat, strain Fischer 344, females, in feed, site: stomach + urinary bladder, lesion: squamous-cell papilloma + papillomatosis + papillary carcinoma + papilloma, NOS + transitional-cell carcinoma + transitional-cell, dosed 78 weeks, study length 105 weeks) was 212 mg/kg/day. It also gave a TD50 (rat, strain Fischer 344, females, in feed, site: stomach, lesion: squamous-cell papilloma, dosed 78 weeks, study length 105 weeks) of 5270 mg/kg/day, a TD50 (rat, strain Fischer 344, females, in feed, site: thyroid gland, lesion: follicular-cell adenoma + follicular-cell carcinoma, dosed 78 weeks, study length 105 weeks) of 2160 mg/kg/day and a TD50 (rat, strain Fischer 344, females, in feed, site: urinary bladder, lesion: papillary carcinoma + transitional-cell carcinoma, dosed 78 weeks, study length 105 weeks) of 429 mg/kg/day. It also gave a TD50 (rat, strain Fischer 344, females, in feed, site: urinary bladder, lesion: papillomatosis + papillary carcinoma + papilloma, NOS + transitional-cell carcinoma + transitional-cell papilloma, dosed 78 weeks, study length 105 weeks) of 212 mg/kg/day, a TD50 (rat, strain Fischer 344, males, in feed, site: any site (literature study), lesion: several types, types named in the paper, dosed 78 weeks, study length 105 weeks) of 362 mg/kg/day and a TD50 (rat, strain Fischer 344, males, in feed, site: liver, lesion: hepatocellular adenoma + hepatocellular carcinoma + neoplastic nodule, dosed 78 weeks, study length 105 weeks) of 1240 mg/kg/day. It also gave a TD50 (rat, strain Fischer 344, males, in feed, site: stomach + urinary bladder, lesion: squamous-cell carcinoma + squamous-cell papilloma + papilloma, NOS + transitional-cell carcinoma + transitional-cell papilloma, dosed 78 weeks, study length 105 weeks) of 197 mg/kg/day, a TD50 (rat, strain Fischer 344, males, in feed, site: stomach, lesion: squamous-cell carcinoma + squamous-cell papilloma, dosed 78 weeks, study length 105 weeks) of 2500 mg/kg/day and a TD50 (rat, strain Fischer 344, males, in feed, site: thyroid gland, lesion: follicular-cell adenoma + follicular-cell carcinoma, dosed 78 weeks, study length 105 weeks) of 3380 mg/kg/day. For the same compound, the TD50 (rat, strain Fischer 344, males, in feed, site: urinary bladder, lesion: papilloma, NOS + transitional-cell carcinoma + transitional-cell papilloma, dosed 78 weeks, study length 105 weeks) was 216 mg/kg/day, the TD50 (rat, strain Fischer 344, males, in feed, site: urinary bladder, lesion: squamous-cell carcinoma, dosed 78 weeks, study length 105 weeks) was 3780 mg/kg/day and the TD50 (rat, strain Fischer 344, males, in feed, site: urinary bladder, lesion: transitional-cell carcinoma, dosed 78 weeks, study length 105 weeks) was 363 mg/kg/day.
For C#CC(C)(C)NC(=O)c1cc(Cl)cc(Cl)c1, the TD50 (mouse, strain B6C3F1, males, in feed, site: liver, lesion: hepatocellular carcinoma, dosed 78 weeks, study length 78 weeks) was 1480 mg/kg/day, the TD50 (mouse, strain B6C3F1, males, in feed, site: liver, lesion: hepatocellular carcinoma, dosed 104 weeks, study length 104 weeks) was 140 mg/kg/day and the TD50 (mouse, strain B6C3F1, males, in feed, site: liver, lesion: several types, types named in the paper, dosed 52 weeks, study length 52 weeks) was 1360 mg/kg/day. It also gave a TD50 (mouse, strain B6C3F1, males, in feed, site: liver, lesion: several types, types named in the paper, dosed 78 weeks, study length 78 weeks) of 700 mg/kg/day and a TD50 (mouse, strain B6C3F1, males, in feed, site: liver, lesion: several types, types named in the paper, dosed 104 weeks, study length 104 weeks) of 209 mg/kg/day.
Compound Cc1ccc(N=Nc2c(O)c(S(=O)(=O)O)cc3cc(S(=O)(=O)O)ccc23)c(C)c1 has a TD50 (mouse, strain DDY, females, in feed, site: liver, lesion: hepatocellular adenoma, dosed 81 weeks, study length 81 weeks) of 21500 mg/kg/day, a TD50 (mouse, strain DDY, females, in feed, site: liver, lesion: hepatocellular carcinoma, dosed 81 weeks, study length 81 weeks) of 784 mg/kg/day and a TD50 (mouse, strain DDY, males, in feed, site: liver, lesion: hepatocellular adenoma, dosed 81 weeks, study length 81 weeks) of 8790 mg/kg/day. For the same compound, the TD50 (mouse, strain DDY, males, in feed, site: liver, lesion: hepatocellular carcinoma, dosed 81 weeks, study length 81 weeks) was 659 mg/kg/day, the TD50 (rat, strain CFE, females, in feed, site: liver, lesion: nodular hyperplasia, dosed 104 weeks, study length 104 weeks) was 704 mg/kg/day and the TD50 (rat, strain CFE, males, in feed, site: liver, lesion: nodular hyperplasia, dosed 104 weeks, study length 104 weeks) was 2910 mg/kg/day. For the same compound, the TD50 (rat, strain Wistar albino, females, in feed, site: liver, lesion: hepatocellular carcinoma, dosed 52 weeks, study length 91 weeks) was 2620 mg/kg/day, the TD50 (rat, strain Wistar albino, females, in feed, site: liver, lesion: hepatocellular carcinoma, dosed 91 weeks, study length 91 weeks) was 3270 mg/kg/day and the TD50 (rat, strain Wistar albino, females, in feed, site: liver, lesion: several types, types named in the paper, dosed 52 weeks, study length 91 weeks) was 233 mg/kg/day. For the same compound, the carcinogen call (rat, strain Wistar albino, females, in feed, site: liver, lesion: several types, types named in the paper, dosed 91 weeks, study length 91 weeks) was “positive” and the TD50 (rat, strain Wistar, males, in feed, site: liver, lesion: liver-cell adenoma, dosed 65 weeks, study length 65 weeks) was 1130 mg/kg/day.
NC(=O)OCC(COC(N)=O)c1ccccc1 showed a TD50 (mouse, strain Charles River CD1, females, in feed, site: liver, lesion: hepatocellular adenoma, dosed 92 weeks, study length 92 weeks) of 10400 mg/kg/day, a TD50 (mouse, strain Charles River CD1, females, in feed, site: liver, lesion: several types, types named in the paper, dosed 92 weeks, study length 92 weeks) of 10200 mg/kg/day and a TD50 (mouse, strain Charles River CD1, males, in feed, site: liver, lesion: hepatocellular adenoma, dosed 92 weeks, study length 92 weeks) of 5770 mg/kg/day. For the same compound, the TD50 (rat, strain Charles River CD (Sprague-Dawley), females, in feed, site: liver, lesion: hepatocellular adenoma, dosed 104 weeks, study length 104 weeks) was 934 mg/kg/day, the carcinogen call (rat, strain Charles River CD (Sprague-Dawley), females, in feed, site: liver, lesion: one or several types, types not named, dosed 52 weeks, study length 52 weeks) was “negative (inactive)” and the carcinogen call (rat, strain Charles River CD (Sprague-Dawley), males, in feed, site: liver, lesion: one or several types, types not named, dosed 52 weeks, study length 52 weeks) was “negative (inactive)”. For the same compound, the TD50 (rat, strain Charles River CD (Sprague-Dawley), males, in feed, site: liver, lesion: several types, types named in the paper, dosed 104 weeks, study length 104 weeks) was 9780 mg/kg/day and the TD50 (rat, strain Charles River CD (Sprague-Dawley), males, in feed, site: testis, lesion: interstitial-cell tumor, dosed 104 weeks, study length 104 weeks) was 1310 mg/kg/day.
